According to US8017557B2, “Benzodioxole derivatives as modulators of proteolytic activity in plants” (Endura S.p.A., priority 2002, dated 2011):
Like-named read-outs stand apart in the source and are kept apart here.

System: endopeptidase activity in cotton sprouts
Conditions: for absorbance reading, Mean, Cotton Sprouts Treated with PBO / absorbance reading, replicate 1, Cotton Sprouts Treated with PBO / absorbance reading, replicate 2, Cotton Sprouts Treated with PBO / absorbance reading, replicate 3, Cotton Sprouts Treated with PBO / Endopeptidase Activity (U × 10^3), Cotton Sprouts Treated with PBO: pH 7.7; for absorbance reading, Mean, Cotton Sprouts Treated with PBO / absorbance reading, replicate 1, Cotton Sprouts Treated with PBO / absorbance reading, replicate 2, Cotton Sprouts Treated with PBO / absorbance reading, replicate 3, Cotton Sprouts Treated with PBO / % difference of endopeptidase activity, treated vs untreated / Endopeptidase Activity (U × 10^3), Cotton Sprouts Treated with PBO: 4 days of germination, PBO 1% w/v; for Δ U (endopeptidase activity, untreated vs PBO treated): same scale as Activity (U × 10^3)
Experimental: The extent of hydrolytic activity in cotton sprouts was measured at 15′, 30′, 60′, 90′ and 120′ after solubilization of the acetonic powder in aqueous buffer at pH 7.7 by determining the absorbance at 280 nm in a quartz cuvette after protein precipitation with TCA and removal by centrifugation. Each series of analysis was performed in […]. The comparison between the values of […] activity in treated (dark grey) and untreated (light grey) samples was done using the average value of each series of analysis. Abscissa: time (min); ordinate: Abs 280 nm.
The basic idea was to “freeze” the physiologic protein hydrolysis enzymatic activity and to re-establish the process simply solubilizing the proteolytic enzymatic system in suitable buffers, which were 0.1 M phosphate pH 6.5 and 0.1 M tris-HCl pH 7.7, for evaluating both the carboxypeptidase and the endopeptidase activities according to the method described by Hile et al. 1972; Funkhouser et al. 1980.
Cotton seeds (cv. Carmela) were obtained from “Semillas Battle”, Barcelona (E).
The seeds were previously rinsed in tap water and then imbibed with aeration in distilled water over night (Funkhouser, E. A. et al., Z. Pflanzenphysiol., 1980, 100, 319-324).
The plastic boxes containing seeds were covered by a plastic film and placed in a germinator in the dark for 4 days at 30° C. as described in Hile, J. N. and Dure, L. S. J. Biol. Chem., 1972, 247: 5034-5040.
The cotton sprouts of 4 days were collected and frozen in liquid nitrogen and freeze dried (Hile et al. 1972). After this process, the material was crushed in a pestle and freed from fibrous material and settled up to obtain a pretty homogeneous meal of about 0.5 mesh.
The meals were defatted using n-hexane (1:10 w/v) at room temperature and then treated with acetone at −20° C. to remove pigments and polyphenolic compounds, in this case mainly gossypol. The powders obtained were stored in a dry box at room temperature.
The acetonic powder (30 mg) was suspended in buffer (4 ml) and incubated at 37° C. for 15′, 30, 60, 90, 120 minutes. The proteolysis was stopped adding 1 ml of 12% trichloroacetic acid. In this case the buffer used was 0.1 M phosphate pH 7.7 (Funkhouser et al. 1980). The control was a suspension of the same sample prepared in the same way but was immediately deactivated, adding up 1 ml of trichloroacetic acid. The trials with treated and untreated samples were carried out at the same time.
Proteins were precipitated with trichloroacetic acid and then removed by filtration, before with Whatman paper n. 4 and then by micro-filtration (Orange Scientific Braine I'Alleud, Belgium (Ø0.2 μm)). Finally, the hydrolyzed protein samples were analyzed as clear solutions by determining the absorbance at 280 nm in a quartz cuvette.
Each series of analysis was performed threefold. The comparison between the values of endopeptidase activity of treated and untreated samples was done using the average value of each series of analysis.

[1] = Time 0 (immediately deactivated)

SMILES: CCCCOCCOCCOCc1cc2c(cc1CCC)OCO2 [PBO, 5-[[2-(2-Butoxyethoxy)ethoxy]methyl]-6-propyl-1,3-benzodioxole]
- endopeptidase activity in PBO treated cotton sprouts (FIG. 5, treated vs untreated cotton sprouts): lower than in the untreated ones
- absorbance reading, Mean, Cotton Sprouts Treated with PBO [1]: 868.00
- absorbance reading, replicate 1, Cotton Sprouts Treated with PBO [1]: 821.00
- absorbance reading, replicate 2, Cotton Sprouts Treated with PBO [1]: 897.00
- absorbance reading, replicate 3, Cotton Sprouts Treated with PBO [1]: 886.00
- % difference of endopeptidase activity, treated vs untreated (Time 15′): 47.86%
- Endopeptidase Activity (U × 10^3), Cotton Sprouts Treated with PBO (Time 15′): 50.67 U × 10^3
- absorbance reading, Mean, Cotton Sprouts Treated with PBO (Time 15′): 918.67
- absorbance reading, replicate 1, Cotton Sprouts Treated with PBO (Time 15′): 965.00
- absorbance reading, replicate 2, Cotton Sprouts Treated with PBO (Time 15′): 876.00
- absorbance reading, replicate 3, Cotton Sprouts Treated with PBO (Time 15′): 915.00
- Δ U (endopeptidase activity, untreated vs PBO treated) (Time 15′): 46.50 U
- % difference of endopeptidase activity, treated vs untreated (Time 30′): 29.00%
- Endopeptidase Activity (U × 10^3), Cotton Sprouts Treated with PBO (Time 30′): 82.00 U × 10^3
- absorbance reading, Mean, Cotton Sprouts Treated with PBO (Time 30′): 950.00
- absorbance reading, replicate 1, Cotton Sprouts Treated with PBO (Time 30′): 965.00
- absorbance reading, replicate 2, Cotton Sprouts Treated with PBO (Time 30′): 935.00
- absorbance reading, replicate 3, Cotton Sprouts Treated with PBO (Time 30′): 950.00
- Δ U (endopeptidase activity, untreated vs PBO treated) (Time 30′): 33.50 U
- % difference of endopeptidase activity, treated vs untreated (Time 60′): 12.86%
- Endopeptidase Activity (U × 10^3), Cotton Sprouts Treated with PBO (Time 60′): 148.00 U × 10^3
- absorbance reading, Mean, Cotton Sprouts Treated with PBO (Time 60′): 1016.00
- absorbance reading, replicate 1, Cotton Sprouts Treated with PBO (Time 60′): 1038.00
- absorbance reading, replicate 2, Cotton Sprouts Treated with PBO (Time 60′): 1038.00
- absorbance reading, replicate 3, Cotton Sprouts Treated with PBO (Time 60′): 972.00
- Δ U (endopeptidase activity, untreated vs PBO treated) (Time 60′): 21.83 U
- % difference of endopeptidase activity, treated vs untreated (Time 90′): 28.80%
- Endopeptidase Activity (U × 10^3), Cotton Sprouts Treated with PBO (Time 90′): 127.33 U × 10^3
- absorbance reading, Mean, Cotton Sprouts Treated with PBO (Time 90′): 995.33
- absorbance reading, replicate 1, Cotton Sprouts Treated with PBO (Time 90′): 1015.00
- absorbance reading, replicate 2, Cotton Sprouts Treated with PBO (Time 90′): 991.00
- absorbance reading, replicate 3, Cotton Sprouts Treated with PBO (Time 90′): 980.00
- Δ U (endopeptidase activity, untreated vs PBO treated) (Time 90′): 51.50 U
- % difference of endopeptidase activity, treated vs untreated (Time 120′): 22.48%
- Endopeptidase Activity (U × 10^3), Cotton Sprouts Treated with PBO (Time 120′): 129.33 U × 10^3
- absorbance reading, Mean, Cotton Sprouts Treated with PBO (Time 120′): 997.33
- absorbance reading, replicate 1, Cotton Sprouts Treated with PBO (Time 120′): 1017.00
- absorbance reading, replicate 2, Cotton Sprouts Treated with PBO (Time 120′): 960.00
- absorbance reading, replicate 3, Cotton Sprouts Treated with PBO (Time 120′): 1015.00
- Δ U (endopeptidase activity, untreated vs PBO treated) (Time 120′): 37.50 U
